Experimental data: US7169932B2 (priority 2001, dated 2007)
Like-named read-outs stand apart in the source and are kept apart here.

Experiments:
HIV-1 protease (Q7S) = target: T1, HIV-1 protease (Q7S) (Human immunodeficiency virus type 1 group M subtype B, UniProt P04585, Q495S); assay: HIV-1 Protease RET Assay; type: biochemical
T1 construct: made in house
Method: Ki's for the inhibitors of HIV-1 protease were determined using a resonance energy transfer (RET) assay. […] This enzyme is first partially purified as inclusion bodies from cell lysate. It is then solublized in 8M urea and passed through a Q-Sepharose column (Pharmacia) for further purification. To refold this protein, samples containing Q7S is dialyzed into 50 mM sodium phosphate pH 7.0, 50 mM NaCl, 10 mM DTT, and 10% glycerol.
The commercially available peptide substrate (Molecular Probes Cat. # H-2930) RE(EDANS)SQNYPIVQK(DABCYL)R is used to assess activity and Ki's. This peptide is cleaved quantitatively by HIV-1 Pr at the Tyr-Pro bond. The EDANS fluorophore absorbs at 340 nm and emits at 490 nm. The reaction is carried out in a 96 well plate in a total volume of 100 μL and is run for 12 minutes at 37 C under steady-state conditions with 5 μM substrate and 2 nM active dimer enzyme concentration. The literature value Km for this substrate and enzyme is 103+/−8 μM (See Matayoshi, et al., “Novel Fluorogenic Substrates for Assaying Retroviral Proteases by Resonance Energy Transfer,” Science 247, 954 (1990)). The buffer for this reaction is 0.1M sodium acetate pH 4.8, 1M NaCl, 1 mM EDTA, 5 mM dithiothreitol, 10% dimethyl sulfoxide and 1 mg/ml bovine serum albumin. Inhibition curves are fit using the Morrison tight binding equation.

HIV-1 = assay: Cytopathic Effect (CPE) Inhibition Assay (XTT dye reduction); type: cell-based
Method: T-cell lines, CEM-SS, and MT-2, and viruses HIV-1 RF and HIV-1 NL4–3 (pNL4–3) were obtained from the National Institutes of Health (AIDS Research and Reference Reagent Program, Bethesda, Md.).
The ability of compounds to protect cells against HIV infection was measured by the […] dye reduction method, essentially as described (See Pauwels, R. Balzarini, J. Baba, M. Snoeck, R. Schols, D. Herdewijn, P. Desmyter, J. and De Clercq, E. 1988, “Rapid and automated tetrazolium-based colorimetric assay for the detection of anti-HIV compounds,”. J Virol Methods., 20: 309–321 and Weislow, O. S. Kiser, R. Fine, D. L. Bader, J. Shoemaker, R. H. and Boyd, M. R. 1989. “New soluble-formazan assay for HIV-1 cytopathic effects: application to high-flux screening of synthetic and natural products for AIDS-antiviral activity”. J. Natl. Cancer Inst. 81:577–586). Subject cells were infected with test virus at an moi of 0.025 to 0.819 or mock infected with medium only and added at 2×10^4 cells per well into 96 well plates containing half-log dilutions of test compounds. Six days later, 50 μl of XTT (1 mg/ml XTT tetrazolium, […] phenazine methosulfate) was added to the wells and the plate was reincubated for four hours. Viability, as determined by the amount of XTT formazan produced, was quantified spectrophotometrically by absorbance at 450 nm. Data from CPE assays were expressed as the percent of formazan produced in compound-treated cells compared to formazan produced in wells of uninfected, compound-free cells. The fifty percent effective concentration (EC50) was calculated as the concentration of compound that effected an increase in the percentage of formazan production in infected, compound-treated cells to 50% of that produced by uninfected, compound-free cells. The 50% cytotoxicity concentration (CC50) was calculated as the concentration of compound that decreased the percentage of formazan produced in uninfected, compound-treated cells to 50% of that produced in uninfected, compound-free cells. The therapeutic index was calculated by dividing the cytotoxicity (CC50) by the antiviral activity (EC50).

[1] = Ave. Ki (nM), RET assay, Q7S enzyme, pH 4.8, 37 C
[2] = Human immunodeficiency virus 1, 144 h, read-out: Ave CPE EC50 (mM)
[3] = Ki, table of drawn compounds, unit inferred

SMILES: Cc1c(O)cccc1C(=O)N[C@@H](Cc1ccccc1)[C@H](O)C(=O)N1CSC(C)(C)[C@H]1C(=O)NCc1cccc(N)c1 [Example A29, (R)-3-((2S,3S)-2-Hydroxy-3-{[1-(3-hydroxy-2-methyl-phenyl)-methanoyl]-amino}-4-phenyl-butanoyl)-5,5-dimethyl-thiazolidine-4-carboxylic acid 3-amino-benzylamide]
- Ki (HIV-1 protease (Q7S); [1]): < 0.1 nM
- EC50 (HIV-1; [2]): 117 nM

SMILES: Cc1c(O)cccc1C(=O)N[C@@H](Cc1ccccc1)[C@H](O)C(=O)N1CSC(C)(C)[C@H]1C(=O)NCCCl [Example A49, (R)-3-[(2S,3S)-2-Hydroxy-3-(3-hydroxy-2-methyl-benzoylamino)-4-phenyl-butyryl]-5,5-dimethyl-thiazolidine-4-carboxylic acid (2-chloro-ethyl)-amide]
- Ki (HIV-1 protease (Q7S); [1]): 1.2 nM
- EC50 (HIV-1; [2]): 130 nM

SMILES: Cc1ccccc1CNC(=O)[C@H]1N(C(=O)[C@@H](O)[C@H](Cc2ccccc2)NC(=O)c2ccccc2Cl)CSC1(C)C
- Ki (HIV-1 protease (Q7S); [3]): 0.2 nM
- EC50 (HIV-1; Human immunodeficiency virus 1): 585 nM

SMILES: Cc1c(O)cccc1C(=O)N[C@@H](Cc1ccccc1)[C@H](O)C(=O)N1CSC(C)(C)[C@H]1C(=O)NC/C=C/C(F)(F)F [Example A40, (R)-3-((2S,3S)-2-Hydroxy-3-{[1-(3-hydroxy-2-methyl-phenyl)-methanoyl]-amino}-4-phenyl-butanoyl)-5,5-dimethyl-thiazolidine-4-carboxylic acid ((E)-4,4,4-trifluoro-but-2-enyl)-amide]
- Ki (HIV-1 protease (Q7S); [1]): 1.2 nM
- EC50 (HIV-1; [2]): 275 nM

SMILES: COc1ccccc1C(=O)N[C@@H](Cc1ccccc1)[C@H](O)C(=O)N1CSC(C)(C)[C@H]1C(=O)NCc1ccccc1C
- Ki (HIV-1 protease (Q7S); [3]): 2.1 nM
- EC50 (HIV-1; Human immunodeficiency virus 1): 1490 nM

SMILES: Cc1cc(Cl)ccc1CNC(=O)[C@H]1N(C(=O)[C@@H](O)[C@H](Cc2ccccc2)NC(=O)c2cccc(O)c2C)CSC1(C)C
- Ki (HIV-1 protease (Q7S); [3]): 0.26 nM
- EC50 (HIV-1; Human immunodeficiency virus 1): 207 nM

SMILES: Cc1ccccc1CNC(=O)[C@@H]1C[C@H](F)CN1C(=O)[C@@H](O)[C@H](Cc1ccccc1)NC(=O)c1cccc(O)c1C [Example C3, (2S,4S)-4-Fluoro-1-[(2S,3S)-2-hydroxy-3-(3-hydroxy-2-methyl-benzoylamino)-4-phenyl-butyryl]-pyrrolidine-2-carboxylic acid 2-methyl-benzylamide]
- Ki (HIV-1 protease (Q7S); [1]): 1.3 nM
- EC50 (HIV-1; [2]): 500 nM

SMILES: Cc1c(O)cccc1C(=O)N[C@@H](Cc1ccccc1)[C@H](O)C(=O)N1CSC(C)(C)[C@H]1C(=O)NCc1ccc(N(C)C)cc1 [Example A15, (R)-3-((2S,3S)-2-Hydroxy-3-{[1-(3-hydroxy-2-methyl-phenyl)-methanoyl]-amino}-4-phenyl-butanoyl)-5,5-dimethyl-thiazolidine-4-carboxylic acid 4-dimethylamino-benzylamide]
- Ki (HIV-1 protease (Q7S); [1]): 10.9 nM
- EC50 (HIV-1; [2]): 130 nM

SMILES: Cc1cc(C(=O)N[C@@H](Cc2ccccc2)[C@H](O)C(=O)N2CSC(C)(C)[C@H]2C(=O)NCc2ccccc2C)no1
- Ki (HIV-1 protease (Q7S); [3]): 2.6 nM
- EC50 (HIV-1; Human immunodeficiency virus 1): 1310 nM

SMILES: C#CCNC(=O)[C@H]1N(C(=O)[C@@H](O)[C@H](Cc2ccccc2)NC(=O)c2ccc(C)c(O)c2C)CSC1(C)C [Example B21, 3-(2-Hydroxy-3-{[1-(3-hydroxy-2,4-dimethyl-phenyl)-methyanoyl]-amino}-4-phenyl-butznoyl)-5,5-dimethyl-thiazolidine-4-carboxylic acid prop-2-ynylamide]
- Ki (HIV-1 protease (Q7S); [1]): 4.6 nM
- EC50 (HIV-1; [2]): 598 nM

SMILES: Cc1c(O)cccc1C(=O)N[C@@H](Cc1ccccc1)[C@H](O)C(=O)N1CSC(C)(C)[C@H]1C(=O)NC(C)(C)C#N [Example A41, (R)-3-((2S,3S)-2-Hydroxy-3-{[1-(3-hydroxy-2-methyl-phenyl)-methanoyl]-amino}-4-phenyl-butanoyl)-5,5-dimethyl-thiazolidine-4-carboxylic acid (1-cyano-1,1-dimethyl-methyl)-amide]
- Ki (HIV-1 protease (Q7S); [1]): 1.6 nM
- EC50 (HIV-1; [2]): 527 nM

SMILES: Cc1ccc(F)cc1CNC(=O)[C@H]1N(C(=O)[C@@H](O)[C@H](Cc2ccccc2)NC(=O)c2cccc(O)c2C)COC1(C)C [Example C9, (S)-3-((2S,3S)-2-Hydroxy-3-{[1-(3-hydroxy-2-methyl-phenyl)-methanoyl]-amino}-4-phenyl-butanoyl)-5,5-dimethyl-oxazolidine-4-carboxylic acid 5-fluoro-2-methyl-benzylamide]
- Ki (HIV-1 protease (Q7S); [1]): 0.34 nM
- EC50 (HIV-1; [2]): 233 nM

SMILES: CC(=O)Nc1cccc(CNC(=O)[C@H]2N(C(=O)[C@@H](O)[C@H](Cc3ccccc3)NC(=O)c3cccc(O)c3C)CSC2(C)C)c1 [Example A33, (R)-3-((2S,3S)-2-Hydroxy-3-{[1-(3-hydroxy-2-methyl-phenyl)-methanoyl]-amino}-4-phenyl-butanoyl)-5,5-dimethyl-thiazolidine-4-carboxylic acid 3-acetylamino-benzylamide]
- Ki (HIV-1 protease (Q7S); [1]): < 0.1 nM
- EC50 (HIV-1; [2]): 577 nM

SMILES: C=CCNC(=O)[C@H]1N(C(=O)[C@@H](O)[C@H](Cc2ccccc2)NC(=O)c2ccc(C)c(O)c2C)CSC1(C)C [Example B20, (R)-3-((2S,3S)-2-Hydroxy-3-{[1-(3-hydroxy-2,4-dimethyl-phenyl)-methanoyl]-amino}-4-phenyl-butanoyl)-5,5-dimethyl-thiazolidine-4-carboxylic acid allylamide]
- Ki (HIV-1 protease (Q7S); [1]): 2.1 nM
- EC50 (HIV-1; [2]): 427 nM

SMILES: Cc1ccccc1CNC(=O)[C@H]1N(C(=O)[C@@H](O)[C@H](Cc2ccccc2)NC(=O)c2c[nH]cn2)CSC1(C)C
- Ki (HIV-1 protease (Q7S); [3]): 55.8 nM
- EC50 (HIV-1; Human immunodeficiency virus 1): ≥ 10000 nM

SMILES: Cc1c(O)cccc1C(=O)N[C@@H](Cc1ccccc1)[C@H](O)C(=O)N1CSC(C)(C)[C@H]1C(=O)NCc1cc(F)c(F)cc1F
- Ki (HIV-1 protease (Q7S); [3]): 0.17 nM
- EC50 (HIV-1; Human immunodeficiency virus 1): 289 nM

SMILES: Cc1c(O)cccc1C(=O)N[C@@H](Cc1ccccc1)[C@H](O)C(=O)N1CSC(C)(C)[C@H]1C(=O)NCc1ccc(S(C)(=O)=O)cc1 [Example A13, 3-[2-Hydroxy-3-(3-hydroxy-2-methyl-benzoylamino)-4-phenyl-butyryl]-5,5-dimethyl-thiazolidine-4-carboxylic acid 4-methanesulfonyl-benzamide]
- Ki (HIV-1 protease (Q7S); [1]): 44.1 nM
- EC50 (HIV-1; [2]): > 1000 nM

SMILES: C=CCNC(=O)[C@H]1N(C(=O)[C@@H](O)[C@H](Cc2ccccc2)NC(=O)[C@@H]2CCCO2)CSC1(C)C
- Ki (HIV-1 protease (Q7S); [3]): 17.3 nM
- EC50 (HIV-1; Human immunodeficiency virus 1): 3300 nM

SMILES: C#CCNC(=O)[C@H]1N(C(=O)[C@@H](O)[C@H](Cc2ccccc2)NC(=O)[C@@H]2CCCO2)CSC1(C)C
- Ki (HIV-1 protease (Q7S); [3]): 16.8 nM
- EC50 (HIV-1; Human immunodeficiency virus 1): 3740 nM

SMILES: Cc1c(O)cccc1C(=O)N[C@@H](Cc1ccccc1)[C@H](O)C(=O)N1CSC(C)(C)[C@H]1C(=O)NCCc1ccccc1 [Example A19, (R)-3-((2S,3S)-2-Hydroxy-3-{[1-(3-hydroxy-2-methyl-phenyl)-methanoyl]-amino}-4-phenyl-butanoyl)-5,5-dimethyl-thiazolidine-4-carboxylic acid phenethyl-amide]
- Ki (HIV-1 protease (Q7S); [1]): 10 nM
- EC50 (HIV-1; [2]): 442 nM

SMILES: C=C(C)CNC(=O)[C@H]1N(C(=O)[C@@H](O)[C@H](Cc2ccccc2)NC(=O)c2cccc(O)c2C)CSC1(C)C [Example A28, (R)-3-((2S,3S)-2-Hydroxy-3-{[1-(3-hydroxy-2-methyl-phenyl)-methanoyl]-amino}-4-phenyl-butanoyl)-5,5-dimethyl-thiazolidine-4-carboxylic acid (2-methyl-allyl)-amide]
- Ki (HIV-1 protease (Q7S); [1]): < 0.1 nM
- EC50 (HIV-1; [2]): 41 nM

SMILES: COc1ccc(CNC(=O)[C@H]2N(C(=O)[C@@H](O)[C@H](Cc3ccccc3)NC(=O)c3cccc(O)c3C)CSC2(C)C)cc1 [Example A6, (R)-3-((2S,3S)-2-Hydroxy-3-{[1-(3-hydroxy-2-methyl-phenyl)-methanoyl]-amino}-4-phenyl-butanoyl)-5,5-dimethyl-thiazolidine-4-carboxylic acid 4-methoxy-benzylamide]
- Ki (HIV-1 protease (Q7S); [1]): 0.22 nM
- EC50 (HIV-1; [2]): 36 nM

SMILES: Cc1c(O)cccc1C(=O)N[C@@H](Cc1ccccc1)[C@H](O)C(=O)N1CSC(C)(C)[C@H]1C(=O)NCc1cccc(OCC(C)C)c1
- Ki (HIV-1 protease (Q7S); [3]): 1.1 nM
- EC50 (HIV-1; Human immunodeficiency virus 1): 1110 nM
